System: Escherichia coli (E. coli DSM 682)
Assay: Bactericidal activity of cleaner/disinfecting formulations according to DIN EN 1276-2010 under dirty conditions
Type: cell-based
Conditions: no ethoxylated alkanol, 0.3% bovine albumin, 35° C., 5 min contact time
Experimental: For biological activity testing, the following microorganisms were used: Escherichia coli(E. coli DSM 682)
Lutensol® XP 40 and benzalkonium chloride (BAC) were formulated into a dilutable concentrated hard-surface cleaner. For comparison, corresponding formulations containing Lutensol® XP 70 or Lutensol® A 7 N instead of Lutensol® XP 40 were also prepared. The finished formulations were pre-dissolved 1:80 in standardized hard water (DIN EN 1276-2010) and then diluted to 80% by adding 1 ml of the inoculate and 1 ml of bovine albumin solution to 8 ml of the pre-dissolved cleaner, so that in-test a dilution of 1:100 was obtained.
(§1) Antimicrobial testing of the above formulations in 1:100 dilution was done according to European Standard (DIN EN 1276-2010) under dirty conditions, i.e. additional soiling of 0.3% bovine albumin at 35° C. and 5 mi contact time. Neutralization was done using the Saponin-containing neutralizer as described in DIN EN 1276 (30 g/l Polysorbate 80+30 g/l Saponin+3 g/l Lecithin). Results are documented in the table below as logarithmic reduction (Ig R) in comparison to the number of microorganisms used for the test.
Benzalkonium chloride (BAC) and one of Lutensol® XP 30, Lutensol® XP 40 and Lutensol® XP 50 were formulated into a dilutable concentrated hard-surface cleaner. The finished formulations were pre-dissolved 1:80 in standardized hard water (DIN EN 1276-2010) and then diluted to 80% by adding 1 ml of the inoculate and 1 ml of bovine albumin solution to 8 ml of the pre-dissolved cleaner, so that in-test a dilution of 1:100 was obtained.
as §1, with “5 min” for “5 mi”, “test. […]” for “test.”

Row | SMILES | E. coli logarithmic reduction (lg R) (Example 1, BAC 40 ppm in-test, 1:100 dilution, pH ca. 8) | E. coli logarithmic reduction (lg R) (Example 2, BAC 40 ppm in-test) | E. coli logarithmic reduction (lg R) (Example 3, DDAC 20 ppm in-test)
1 | CCCCCCCCCCCC[N+](C)(C)Cc1ccccc1.[Cl-] [BAC, lauryl dimethyl benzyl ammonium chloride] | <0.87 lg R | 0.4 lg R | 
2 | CCCCCCCCCC[N+](C)(C)CCCCCCCCCC.[Cl-] [DDAC, didecyldimethylammonium chloride] |  |  | 0.7 lg R

Reference: patent US20250359547A1, “ALKOXYLATED ALKANOLS FOR ENHANCING THE ACTIVITY OF ANTIMICROBIAL AGENTS” (BASF SE, priority 2022, published 2025)
